Laboratory results as given in patent US5482867A, “Spatially-addressable immobilization of anti-ligands on surfaces” (Affymax Technologies N.V., priority 1993, dated 1996).
“Also recorded” adds a separate entry of the source.

Assays:
Avidin [1] = target: T1, Avidin (Streptomyces avidinii, UniProt P22629); settings: SBS: Avidin; cited from earlier work
streptavidin [2] = target: T2, streptavidin (Streptomyces avidinii, UniProt P22629); experiment: Scanning fluorescence imaging of Fluorescein-Biotin binding to streptavidin immobilized on a slide; settings: 1 μM Fluorescein-Biotin, 20 minutes
T2 construct: purchased Amersham
T2 sequence (P22629 25-183): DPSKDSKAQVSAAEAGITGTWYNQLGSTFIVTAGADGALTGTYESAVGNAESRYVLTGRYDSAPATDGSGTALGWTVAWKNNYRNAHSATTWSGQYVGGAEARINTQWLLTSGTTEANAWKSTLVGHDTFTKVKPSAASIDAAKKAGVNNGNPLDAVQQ
Method: The microscope slide of Example I having NVOC-biotin covalently attached via a caproic-propyl spacer was illuminated and processed as in Example J, except that after preincubation with the PBS/BSA/Tween 20 solution, the surface was treated with 10 μg/ml solution of Streptavidin (in PBS/BSA/Tween 20) for 40 minutes at room temperature, followed by incubation with a 1 μM solution of Fluorescein-Biotin (5-(N-((5-(N-(6-(biotinoyl)amino) hexanoyl)amino)pentyl)thioureidyl)fluorescein, in PBS, pH 7.4) for 20 minutes. The resulting slide was then washed, dried, and examined using a scanning fluorescence microscope as described above.

[3] = Chromatographic (reverse-phase HPLC) evidence for photoremoval of the NVOC group in solution; assay type: physicochemical; settings: 100 mM, two minutes, 1 watt/cm^2, 500 W Hg(Xe) arc lamp, 305 nm long pass filter; NVOC-biotin-ONP in acetonitrile, biotin in water
Excerpt: The cuvette was irradiated for two minutes at a power of 1 watt/cm^2 with a 500 W Hg(Xe) arc lamp (Oriel #66142) having a 305 nm long pass filter (Oriel #51450). Illuminated and non-illuminated samples were then subjected to reverse-phase HPLC.

streptavidin [4] = target: T2, streptavidin; experiment: Scanning fluorescence imaging of Fluorescein-Streptavidin binding to caged-biotin glass slides after photodeprotection; settings: NPOC, caproic-propyl spacer
Method: Commercially available glass microscope slides were derivatized with N-BOC-aminopropyltriethoxy silane according to literature procedures (for example, see J. Chromatography, 1974, Vol. 97, p. 33). The slides were incubated in a solution of 20% trifluoroacetic acid in methylene chloride for 30 minutes to remove the BOC protecting group. After washing sequentially with methylene chloride, dimethylformamide, and ethanol, the slides were neutralized by immersing in a solution of 10% diisopropylethyl amine in methylene chloride for 30 minutes and further washed with methylene chloride.
N-BOC-6-aminocaproic acid was converted to the BOP-activated ester in preparation for reaction with the derivatized glass slide. […]
[…], as described in the Example I, was mounted on a custom flow cell and illuminated through a 500 μm×500 μm checkerboard-pattern mask (Photo Sciences Inc., Torrance, Calif.) using broad-band UV/blue light. The light source was a 500 W Mercury arc lamp (Oriel Model 87330) equipped with a 350 nm-450 nm dichroic reflector and produced actinic light having an intensity of 12 mW/cm^2 as measured through a 360 nm bandpass filter. […]

avidin or streptavidin = settings: cited from earlier work
Avidin [5] = target: T1, Avidin; experiment: Blocking of subsequent 3H-biotin binding in streptavidin-treated microtiter wells
Method: All procedures using NVOC-biotin-OMe were conducted in dim red light. NVOC-biotin-OMe was dissolved in dimethylformamide (DMF) to a concentration 1 mM and diluted to 100 μM with phosphate-buffered saline pH 7.4. In order to remove any contaminants having high affinity for avidin, 2 ml of the NVOC-biotin-OMe solution was mixed with 1 ml of packed streptavidin-Sepharose-4B resin (SIGMA) which had been washed thoroughly to remove any non-covalently bound avidin. After stirring for three hours, the resin was removed by centrifugation followed by filtration (0.2 micron nylon filter).
Microtiter wells (Beckman EIA plates) were treated for 1 hr with 200 μl of 0.5 μg/ml of streptavidin in 10 mM sodium bicarbonate buffer (pH 9.6). […] The wells were then washed with PBS/Tween 20 and incubated for 1 hr at room temperature with 200 μl of PBS containing ^3 H-biotin (30 Ci/mmol, New England Nuclear). The wells were then washed with PBS/Tween and treated for 30 minutes at room temperature with 200 μl of 10% trichloroacetic acid in water. The radioactivity in 100 μl was then determined by liquid scintillation counting.

T1 sequence (P22629 25-183): as above

SMILES: N=C1NC2CSC(CCCCC(=O)O)C2N1 (stereo not drawn) [Iminobiotin]
- Affinity (Ka) (Avidin [1]): 10^11 M^-1

SMILES: O=C(CCCCCNC(=O)CCCC[C@@H]1SC[C@@H]2NC(=O)N[C@@H]21)NCCCCCNC(=S)Nc1ccc2c(c1)C(=O)OC21c2ccc(O)cc2Oc2cc(O)ccc21 [Fluorescein-Biotin, 5-(N-((5-(N-(6-(biotinoyl)amino)hexanoyl)amino)pentyl)thioureidyl)fluorescein]
- binding of Fluorescein-Biotin to immobilized streptavidin (fluorescence image) (streptavidin [2]): high fluorescence intensity

SMILES: O=C(O)CCCC[C@@H]1SC[C@@H]2NC(=O)N[C@@H]21 [Biotin, reference compound]
- result of illumination (HPLC) [3]: unaffected by the illumination

SMILES: O=C(CCCC[C@@H]1SC[C@H]2[C@@H]1NC(=O)N2C(=O)OCc1cc2c(cc1[N+](=O)[O-])OCO2)Oc1ccc([N+](=O)[O-])cc1 [NPOC-biotin-ONP, N-1'-(6-nitropiperonyloxycarbonyl)-biotin para-nitrophenyl ester]
- streptavidin binding upon photodeprotection (fluorescence image) (streptavidin [4]): spatially-localized streptavidin binding

SMILES: CN(CCCNC(=O)CCCC[C@@H]1SC[C@@H]2NC(=O)N[C@@H]21)CCCNc1ccc(N=[N+]=[N-])cc1[N+](=O)[O-] [photobiotin]
- effect of carboxylate-terminus derivatization on binding to avidin or streptavidin (avidin or streptavidin): does not significantly reduce binding to avidin or streptavidin

SMILES: COc1cc(COC(=O)N2C(=O)N[C@@H]3[C@H](CCCCC(=O)Oc4ccc([N+](=O)[O-])cc4)SC[C@@H]32)c([N+](=O)[O-])cc1OC [NVOC-biotin-ONP, N-1'-(6-nitroveratryloxycarbonyl)-biotin para-nitrophenyl ester]
- result of illumination (HPLC) [3]: converted to biotin-ONP upon illumination; also recorded: converted to Biotin-ONP by the illumination

SMILES: COC(=O)CCCCC1SCC2NC(=O)N(C(=O)OC)C21 (stereo not drawn) [3'-N-methoxy-carbonylbiotin methyl ester]
- Affinity (Ka) (Avidin [1]): 10^9 M^-1

SMILES: COC(=O)CCCCC1SCC2C1NC(=O)N2C(=O)OC (stereo not drawn) [1'-N-methoxy-carbonylbiotin methyl ester]
- Affinity (Ka) (Avidin [1]): 10^7 M^-1

SMILES: COC(=O)CCCC[C@@H]1SC[C@H]2[C@@H]1NC(=O)N2C(=O)OCc1cc(OC)c(OC)cc1[N+](=O)[O-] [NVOC-biotin-OMe, N-1'-(6-nitroveratryloxycarbonyl)-biotin methyl ester]
- affinity for avidin (Avidin [5]; after illumination in solution): high affinity
- effectiveness in blocking the subsequent binding of 3H-biotin (Avidin [5]; illuminated (IL caged biotin), compared with biotin): nearly as effective as biotin
- effect on the subsequent binding of 3H-biotin (Avidin [5]; non-illuminated, concentrations as high as 10^-5 M): no significant effect
- affinity for avidin (Avidin [5]; prior to illumination): low affinity; also recorded: very low affinity
